Biological target: AMPK
Test: AMPK activation, enzyme-linked immunosorbent assay
Assay type: biochemical
Conditions: EC50 for AMPK activation, ELISA
Procedure: Compounds were assayed for their ability to activate AMPK using an enzyme-linked immunosorbent assay. Reagents and procedures for measuring AMPK activation are well known and kits for AMPK activation assays are commercially available.

| Structure (SMILES) | EC50 [nM] |
| --- | --- |
| O=C(NC1CCN(Cc2ccc(N3CCCC3)cc2)CC1)c1ccc(C(=O)N2CCC(Oc3ccc(S(=O)(=O)C4CC4)cc3)CC2)nc1 [Compound 248, 6-(4-(4-(cyclopropylsulfonyl)phenoxy)piperidine-1-carbonyl)-N-(1-(4-(pyrrolidin-1-yl)benzyl)piperidin-4-yl)nicotinamide] | < 500 |
| O=C(c1cccc(C(=O)N2CCN(c3ccccc3)CC2)n1)N1CCN(Cc2ccc(F)cc2)CC1 [Compound 94, (4-(4-fluorobenzyl)piperazin-1-yl)(6-(4-phenylpiperazine-1-carbonyl)pyridin-2-yl)methanone] | > 10000 |
| CN1CCN(c2ccc(C(=O)C3CCN(C(=O)c4ccc(C(=O)Nc5ccc(Oc6ccc(F)cc6)nc5)cn4)CC3)cc2)CC1 [Compound 245, N-(6-(4-fluorophenoxy)pyridin-3-yl)-6-(4-(4-(4-methylpiperazin-1-yl)benzoyl)piperidine-1-carbonyl)nicotinamide] | < 500 |
| C[S+]([O-])c1ccc(C(=O)C2CCN(C(=O)c3ccc(C(=O)NC4CC[N+]([O-])(Cc5ccc(C#N)cc5)CC4)nc3)CC2)cc1 (stereo not drawn) [Compound 374, 1-(4-cyanobenzyl)-4-(5-(4-(4-(methylsulfinyl)benzoyl)piperidine-1-carbonyl)picolinamido) piperidine 1-oxide] | > 10000 |
| CN1CCN(c2ccc(C(=O)C3CCN(C(=O)c4ccc(C(=O)NC5CCN(Cc6ccc(C#N)cc6)CC5)cn4)CC3)cc2)CC1 [Compound 243, N-(1-(4-cyanobenzyl)piperidin-4-yl)-6-(4-(4-(4-methylpiperazin-1-yl)benzoyl)piperidine-1-carbonyl)nicotinamide] | < 500 |
| CC(C)N1CCN(C(=O)c2ccc(C(=O)NC3CCN(Cc4ccc(C#N)cc4)CC3)nc2)CC1 [Compound 84, N-(1-(4-cyanobenzyl)piperidin-4-yl)-5-(4-isopropylpiperazine-1-carbonyl)picolinamide] | 1000 to 5000 |
| CCOC(=O)c1ccc(OC2CCN(C(=O)c3ccc(C(=O)NC4CCN(Cc5ccc(C#N)cc5)CC4)nc3)CC2)cc1 [Compound 284, ethyl 4-(1-(6-(1-(4-cyanobenzyl)piperidin-4-ylcarbamoyl)nicotinoyl)piperidin-4-yloxy)benzoate] | < 500 |
| COc1ccc(C(=O)C2CCN(C(=O)c3ccc(C(=O)Nc4ccc(Oc5ccc(F)cc5)nc4)cn3)CC2)cc1 [Compound 325, N-(6-(4-fluorophenoxy)pyridin-3-yl)-6-(4-(4-methoxybenzoyl)piperidine-1-carbonyl)nicotinamide] | < 500 |
| N#Cc1ccc(O[C@H]2CC[C@@H](NC(=O)c3ccc(C(=O)N4CC[C@H](Oc5ccc(F)cc5)C4)cn3)CC2)cc1 [Compound 176, N-((cis)-4-(4-cyanophenoxy)cyclohexyl)-5-((S)-3-(4-fluorophenoxy)pyrrolidine-1-carbonyl)picolinamide] | 1000 to 5000 |
| O=C(NC1CCN(Cc2ccc(F)cc2)CC1)c1ccc(C(=O)N2CCN(Cc3ccc(F)cc3)CC2)nc1 [Compound 328, 6-(4-(4-fluorobenzyl)piperazine-1-carbonyl)-N-(1-(4-fluorobenzyl)piperidin-4-yl)nicotinamide] | < 500 |
| N#Cc1ccc(CN2CCC(NC(=O)c3ccc(C(=O)N4CCC(C(=O)c5ccc(F)c(F)c5)CC4)cn3)CC2)cc1 [Compound 281, N-(1-(4-cyanobenzyl)piperidin-4-yl)-5-(4-(3,4-difluorobenzoyl)piperidine-1-carbonyl)picolinamide] | < 500 |
| COc1ccc(C(=O)C2CCN(C(=O)c3ccc(C(=O)N[C@H]4CC[C@@H](Oc5ccc(C#N)cc5)CC4)nc3)CC2)cc1 [Compound 171, N-((cis)-4-(4-cyanophenoxy)cyclohexyl)-5-(4-(4-methoxybenzoyl)piperidine-1-carbonyl)picolinamide] | < 500 |
| N#Cc1ccc(CN2CCC(NC(=O)c3ccc(C(=O)N4CCC(c5ccc(Cl)cc5)CC4)cn3)CC2)cc1 [Compound 134, 5-(4-(4-chlorophenyl)piperidine-1-carbonyl)-N-(1-(4-cyanobenzyl)piperidin-4-yl)picolinamide] | < 500 |
| O=C(NC1CCN(Cc2cc(F)cc(F)c2)CC1)c1ccc(C(=O)N2CCC(Oc3ccc(C(F)(F)F)cc3)CC2)cn1 [Compound 294, N-(1-(3,5-difluorobenzyl)piperidin-4-yl)-5-(4-(4-(trifluoromethyl)phenoxy)piperidine-1-carbonyl)picolinamide] | < 500 |
| N#Cc1ccc(CN2CCC(NC(=O)c3ccc(C(=O)N4CCC(C(=O)c5ccc(N=[N+]=[N-])cc5)CC4)nc3)CC2)cc1 [Compound 240, 6-(4-(4-azidobenzoyl)piperidine-1-carbonyl)-N-(1-(4-cyanobenzyl)piperidin-4-yl)nicotinamide] | < 500 |
| O=C(NC1CCN(Cc2cc(F)cc(F)c2)CC1)c1ccc(C(=O)N2CCC(C(=O)c3ccc(F)cc3)CC2)cn1 [Compound 288, N-(1-(3,5-difluorobenzyl)piperidin-4-yl)-5-(4-(4-fluorobenzoyl)piperidine-1-carbonyl)picolinamide] | < 500 |
| CS(=O)(=O)c1ccc(C(=O)C2CCN(C(=O)c3ccc(C(=O)NC4CCN(Cc5ccc(F)cc5)CC4)nc3)CC2)cc1 [Compound 225, N-(1-(4-fluorobenzyl)piperidin-4-yl)-5-(4-(4-(methylsulfonyl)benzoyl)piperidine-1-carbonyl)picolinamide] | < 500 |

| Structure (SMILES) | EC50 [nM] |
| --- | --- |
| CS(=O)(=O)c1ccc(C(=O)C2CCN(C(=O)c3ccc(C(=O)NC4CCN(Cc5ccc(C#N)cc5)CC4)cn3)CC2)cc1 [Compound 221, N-(1-(4-cyanobenzyl)piperidin-4-yl)-6-(4-(4-(methylsulfonyl)benzoyl)piperidine-1-carbonyl)nicotinamide] | 1000 to 5000 |
| N#Cc1ccc(Oc2ccc(NC(=O)c3ccc(C(=O)N4CCN(Cc5ccc(F)cc5)CC4)nc3)cn2)cc1 [Compound 476, N-(6-(4-cyanophenoxy)pyridin-3-yl)-6-(4-(4-fluorobenzyl)piperazine-1-carbonyl)nicotinamide] | < 500 |
| CC(=O)Nc1ccc(OC2CCN(C(=O)c3ccc(C(=O)NC4CCN(Cc5cccc(OC(F)(F)F)c5)CC4)cn3)CC2)cc1 [Compound 428, 6-(4-(4-acetamidophenoxy)piperidine-1-carbonyl)-N-(1-(3-(trifluoromethoxy)benzyl)piperidin-4-yl)nicotinamide] | 500 to 1000 |
| N#Cc1ccc(N2CCC(NC(=O)c3ccc(C(=O)N4CCN(Cc5ccc(F)cc5)CC4)nc3)CC2)cc1 [Compound 417, N-(1-(4-cyanophenyl)piperidin-4-yl)-6-(4-(4-fluorobenzyl)piperazine-1-carbonyl)nicotinamide] | < 500 |
| COc1ccc(OC2CCN(C(=O)c3ccc(C(=O)NC4CCN(Cc5ccc(F)cc5)CC4)nc3)CC2)cc1 [Compound 183, N-(1-(4-fluorobenzyl)piperidin-4-yl)-5-(4-(4-methoxyphenoxy)piperidine-1-carbonyl)picolinamide] | < 500 |
| O=C(NC1CCN(Cc2ccc(OC(F)(F)F)cc2)CC1)c1ccc(C(=O)N2CCC(Oc3ccc(S(=O)(=O)C4CC4)cc3)CC2)nc1 [Compound 249, 6-(4-(4-(cyclopropylsulfonyl)phenoxy)piperidine-1-carbonyl)-N-(1-(4-(trifluoromethoxy)benzyl)piperidin-4-yl)nicotinamide] | < 500 |
| N#Cc1ccc(Oc2ccc(NC(=O)c3ccc(C(=O)N4CCC(C(=O)c5ccc(F)cc5F)CC4)nc3)cn2)cc1 [Compound 463, N-(6-(4-cyanophenoxy)pyridin-3-yl)-6-(4-(2,4-difluorobenzoyl)piperidine-1-carbonyl)nicotinamide] | < 500 |
| N#Cc1ccc(OC2CCN(C(=O)c3ccc(C(=O)N[C@H]4CC[C@@H](Oc5ccc(C#N)cc5)CC4)cn3)CC2)cc1 [Compound 321, N-((cis)-4-(4-cyanophenoxy)cyclohexyl)-6-(4-(4-cyanophenoxy)piperidine-1-carbonyl)nicotinamide] | < 500 |
| COc1ccc(CN2CCC(NC(=O)c3ccc(C(=O)N4CCC(Oc5ccc(C#N)cc5)CC4)nc3)CC2)cc1 [Compound 319, 6-(4-(4-cyanophenoxy)piperidine-1-carbonyl)-N-(1-(4-methoxybenzyl)piperidin-4-yl)nicotinamide] | < 500 |
| COc1ccc(C(=O)C2CCN(C(=O)c3cnc(C(=O)Nc4ccc(Oc5ccc(F)cc5)nc4)cn3)CC2)cc1 [Compound 204, N-(6-(4-fluorophenoxy)pyridin-3-yl)-5-(4-(4-methoxybenzoyl)piperidine-1-carbonyl)pyrazine-2-carboxamide] | < 500 |
| CC(=O)Nc1cccc(OC2CCN(C(=O)c3ccc(C(=O)NC4CCN(Cc5ccc(F)cc5)CC4)cn3)CC2)c1 [Compound 413, 6-(4-(3-acetamidophenoxy)piperidine-1-carbonyl)-N-(1-(4-fluorobenzyl)piperidin-4-yl)nicotinamide] | 1000 to 5000 |
| COc1ccc(CN2CCC(NC(=O)c3ccc(C(=O)N4CCC(Oc5ccc(F)cc5)CC4)cn3)CC2)cc1 [Compound 161, 5-(4-(4-fluorophenoxy)piperidine-1-carbonyl)-N-(1-(4-methoxybenzyl)piperidin-4-yl)picolinamide] | < 500 |
| COc1cccc(OC2CCCN(C(=O)c3ccc(C(=O)NC4CCN(Cc5ccc(C#N)cc5)CC4)nc3)C2)c1 (stereo not drawn) [Compound 277, N-(1-(4-cyanobenzyl)piperidin-4-yl)-5-(3-(3-methoxyphenoxy)piperidine-1-carbonyl)picolinamide] | < 500 |
| COc1ccc(Oc2ccc(NC(=O)c3ccc(C(=O)N4CCN(Cc5ccc(F)cc5)CC4)cn3)cc2)cc1 [Compound 54, 5-(4-(4-fluorobenzyl)piperazine-1-carbonyl)-N-(4-(4-methoxyphenoxy)phenyl)picolinamide] | < 500 |
| N#Cc1ccc(CN2CCC(NC(=O)c3ccc(C(=O)N4CCC(C(=O)c5ccc(-n6cccn6)cc5)CC4)nc3)CC2)cc1 [Compound 393, 6-(4-(4-(1H-pyrazol-1-yl)benzoyl)piperidine-1-carbonyl)-N-(1-(4-cyanobenzyl)piperidin-4-yl)nicotinamide] | < 500 |
| N#Cc1ccc(O[C@H]2CC[C@@H](NC(=O)c3ccc(C(=O)N4CCC(Oc5ccc(C(F)(F)F)cc5)CC4)cn3)CC2)cc1 [Compound 190, N-((cis)-4-(4-cyanophenoxy)cyclohexyl)-5-(4-(4-(trifluoromethyl)phenoxy)piperidine-1-carbonyl)picolinamide] | < 500 |
